A word on the GI50: it is the concentration giving 50% growth inhibition. The term IC50 denotes the midpoint of a concentration-inhibition curve.

From US11926619B2, “Certain pladienolide compounds and methods of use” (EISAI R&D MANAGEMENT CO., LTD., priority 2018, dated 2024) come the findings set out here.

The subject of assay [1] is WiDr-R cells (colon cancer cells; chemically-induced SF3B1 R1074H mutant). Briefly: Cell viability assay (CellTiter-Glo, 72 hr), resistant WiDr-R cells (counter-screen). In kind it is cell-based. To be noted: WiDr-R cells (SF3B1 R1074H mutation, resistant); read-out: WiDr-R GI50. In a few lines: (§1)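 Cells at 2000/well were exposed to 9 compound concentrations (0.1% DMSO) in duplicate or triplicate for 72 hr at 37 °C. ATP was read by CellTiter-Glo against a time-zero plate and DMSO control growth. Percent growth/viability was plotted against concentration to give Emax; negative values indicate lethality.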

Assay [2] concerns WiDr cells (colon cancer cells; wildtype SF3B1). The assay can be described thus: Cell viability assay (CellTiter-Glo, 72 hr), WiDr cells. Format: cell-based. To be noted: Homo sapiens; WiDr cells (wildtype SF3B1); read-out: WiDr GI50. The essentials:
as §1
(In ATP-based viability assays light output follows the ATP content of the culture.)

For assay [3], the system named is Panc 05.04 cells (pancreatic cancer cells; Q699H and K700E mutations in SF3B1). The assay can be described thus: Cell viability assay (CellTiter-Glo, 72 hr), Panc 05.04 cells. To be noted: Panc 05.04 cells (mutant SF3B1); for Emax: maximum achievable response in tested dose range, negative value = cellular lethality, read-out: Panc 05.04 (mt SF3B1 cells) Emax (%); for GI50: read-out: Panc 05.04 (mt SF3B1 cells), GI50. Format: cell-based. In a few lines: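 Viability was read as ATP content (CellTiter-Glo) after 72 hr compound exposure of Panc 05.04 cells at 37 °C, nine concentrations, 0.1% DMSO. Percentage growth was referenced to time-zero and vehicle wells and plotted against concentration to obtain Emax; negative Emax denotes cell killing.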

The next assay has as its target T1, SF3b complexes (Homo sapiens, UniProt O75533+Q7RTV0).
T1 construct: endogenous in cells
The assay can be described thus: Scintillation proximity assay (SPA) with [3H]-labelled pladienolide probe. Format: binding. To be noted: wt SF3B1, read-out: SPA (wt SF3B1 cells) IC50. In a few lines:
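SF3b complexes immunoprecipitated from nuclear extracts with anti-SF3B1 antibody on anti-mouse PVT SPA beads. Beads pre-incubated 30 min with varying PB or PB-OH, then 2.5 nM [3H]-PB added for 30 min; scintillation signal read and fit by non-linear regression.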
(In general: In a scintillation proximity assay essentially only radioactivity close to the scintillant gives light.)

Take `C/C(=C\C=C\[C@@H](C)COC(=O)N1CC[C@H](F)C1)[C@H]1OC(=O)C[C@H](O)CC[C@@](C)(O)[C@@H](OC(=O)N2CCN(C3CCCCCC3)CC2)/C=C/[C@@H]1C`: the figures for the GI50 in assay [1], in assay [2] and in assay [3] were over 1000 nM, 4.3 nM and 1.76 nM, respectively. Also, the Emax in assay [3] is -79.4%. Also, at SF3b complexes, the half-maximal inhibitory concentration (IC50) is 1.93 nM.
`C/C(=C\C=C\[C@@H](C)COC(=O)N1CCC[C@H]1CO)[C@H]1OC(=O)C[C@H](O)CC[C@@](C)(O)[C@@H](OC(=O)N2CCN(C3CCCCCC3)CC2)/C=C/[C@@H]1C`: the GI50 in assay [1] was 40.1 nM; in assay [2], 2.73 nM; in assay [3], 2.39 nM. The Emax in assay [3] is -70.4%. Moreover, the IC50 at SF3b complexes stood at 7.03 nM.
Regarding `CC[C@H](O)[C@@H](C)[C@H]1O[C@@H]1C[C@@](C)(O)/C=C/C=C(\C)[C@H]1OC(=O)C[C@H](O)CC[C@H](C)[C@@H](OC(C)=O)/C=C/[C@@H]1C`, the GI50 in assay [1] came out at 822 nM; in assay [2], 2.14 nM; in assay [3] it was 4.88 nM. The Emax in assay [3] was -65.3%. Besides, at SF3b complexes, the IC50 came out at 5.28 nM.
The matching figures for `C/C(=C\C=C\[C@@H](C)COC(=O)N1CCCC1)[C@H]1OC(=O)C[C@H](O)CC[C@@](C)(O)[C@@H](OC(=O)N2CCN(C)CC2)/C=C/[C@@H]1C`: over 1000 nM, 3.83 nM, 3.05 nM, -90.3% and 2.1 nM.
For the compound `C/C(=C\C=C\[C@@H](C)CNC(=O)N1CCC[C@H]1CO)[C@H]1OC(=O)C[C@H](O)CC[C@@](C)(O)[C@@H](OC(=O)N2CCN(C3CCCCCC3)CC2)/C=C/[C@@H]1C`, the concentration for 50% growth inhibition (GI50) in assay [1] was over 1000 nM; in assay [2], 95.9 nM; in assay [3] it was 77.3 nM. Also, the Emax in assay [3] is -85%. Moreover, the IC50 at SF3b complexes is 40.8 nM.
For the compound `CC(=O)O[C@H]1/C=C/[C@H](C)[C@@H](/C(C)=C/C=C/[C@@H](C)COC(=O)N2CCCC2)OC(=O)C[C@H](O)CC[C@@]1(C)O`, the GI50 was over 1000 nM in assay [1], 4.83 nM in assay [2] and 20.1 nM in assay [3]. The Emax in assay [3] was -94.1%. At SF3b complexes, the IC50 worked out at 2.75 nM.
For the compound `CC(=O)O[C@H]1/C=C/[C@H](C)[C@@H](/C(C)=C/C=C/[C@@H](C)COC(=O)N2CCC2)OC(=O)C[C@H](O)CC[C@@]1(C)O`, the GI50 in assay [1] is over 10000 nM; in assay [2], 138 nM; in assay [3] it was 44.7 nM. The Emax in assay [3] was -91.8%. At SF3b complexes, the IC50 worked out at 10.7 nM.
The matching figures for `C/C(=C\C=C\[C@@H](C)c1ccccn1)[C@H]1OC(=O)C[C@H](O)CC[C@@](C)(O)[C@@H](OC(=O)N2CCNCC2)/C=C/[C@@H]1C`: over 1000 nM, 16 nM, 39.5 nM, -76.5% and 26.9 nM.
For the compound `COC(=O)CC[C@H](C)/C=C/C=C(\C)[C@H]1OC(=O)C[C@H](O)CC[C@@](C)(O)[C@@H](OC(=O)N2CCN(C3CCCCCC3)CC2)/C=C/[C@@H]1C`, the GI50 in assay [1] is over 1000 nM; in assay [2] it was 103 nM; in assay [3], 51.3 nM. In assay [3], the Emax is -96.9%. Further, the IC50 on SF3b complexes amounted to 4.54 nM.
As to `C/C(=C\C=C\[C@@H](C)c1ccccn1)[C@H]1OC(=O)C[C@H](O)CC[C@@](C)(O)[C@@H](OC(=O)N2CCCN(C3CCCCCC3)CC2)/C=C/[C@@H]1C`, the figures for the GI50 in assay [1], in assay [2] and in assay [3] were over 1000 nM, 74.9 nM and 104 nM, respectively. Moreover, the Emax in assay [3] was -12.7%. Besides, at SF3b complexes, the half-maximal inhibitory concentration (IC50) was 7.32 nM.
On to `C/C(=C\C=C\[C@@H](C)COC(=O)N1CCC[C@H]1CO)[C@H]1OC(=O)C[C@H](O)CC[C@@](C)(O)[C@@H](OC(=O)N2CCN(C)CC2)/C=C/[C@@H]1C`, for which the GI50 in assay [1] was over 1000 nM; in assay [2] it was 29.4 nM; in assay [3], 20.3 nM. Also, the Emax in assay [3] was -77.2%. The IC50 at SF3b complexes was 14 nM.
As for `C/C(=C\C=C\[C@H](C)c1ncccn1)[C@H]1OC(=O)C[C@H](O)CC[C@@](C)(O)[C@@H](OC(=O)N2CCN(C3CCCCCC3)CC2)/C=C/[C@@H]1C`, the GI50 in assay [1] was over 1000 nM; in assay [2] it was 38.1 nM; in assay [3] it was 34.5 nM. In addition, the Emax in assay [3] was -93.1%. In addition, the half-maximal inhibitory concentration (IC50) at SF3b complexes was 6.57 nM.
For `C/C(=C\C=C\[C@@H](C)CNC(=O)N1CCCC1)[C@H]1OC(=O)C[C@H](O)CC[C@@](C)(O)[C@@H](OC(=O)N2CCN(C)CC2)/C=C/[C@@H]1C`, in that order: over 1000 nM, 76.6 nM, 54.1 nM, -90.4% and 7.62 nM.
The matching figures for `C/C(=C\C=C\[C@@H](C)c1ccccn1)[C@H]1OC(=O)C[C@H](O)CC[C@@](C)(O)[C@@H](OC(=O)N2CCN(C3CCCCC3)CC2)/C=C/[C@@H]1C`: over 1000 nM, 21.2 nM, 21.4 nM, -94.3% and 3.32 nM.
For `C/C(=C\C=C\[C@@H](C)c1ccccn1)[C@H]1OC(=O)C[C@H](O)CC[C@H](C)[C@@H](OC(=O)N2CCN(C3CCCCCC3)CC2)/C=C/[C@@H]1C`, the GI50 came out at 2430 nM in assay [1], 33.2 nM in assay [2] and 44 nM in assay [3]. Further, the Emax in assay [3] was -96.3%. For the same compound, the IC50 at SF3b complexes came to 10.6 nM.
With `C/C(=C\C=C\[C@H](C)c1ccccn1)[C@H]1OC(=O)C[C@H](O)CC[C@@](C)(O)[C@@H](OC(=O)N2CCC(N3CCCCCC3)CC2)/C=C/[C@@H]1C`, the results for the GI50 in assay [1], in assay [2] and in assay [3] were over 1000 nM, 7.18 nM and 13.6 nM, respectively. Besides, the Emax in assay [3] was -93.8%. For the same compound, on SF3b complexes, the half-inhibitory concentration (IC50) was determined as 2.35 nM.
With `CC(=O)O[C@H]1/C=C/[C@H](C)[C@@H](/C(C)=C/C=C/[C@@H](C)COC(=O)N2CCC[C@@H]2C)OC(=O)C[C@H](O)CC[C@@]1(C)O`, the GI50 was over 10000 nM in assay [1], 38.1 nM in assay [2] and 52.6 nM in assay [3]. In assay [3], the Emax was -90%. Further, the concentration for half-maximal inhibition (IC50) at SF3b complexes stood at 27.3 nM.
Regarding `C/C(=C\C=C/[C@@H](C)COC(=O)N1CC[C@@H](O)C1)[C@H]1OC(=O)C[C@H](O)CC[C@H](C)[C@@H](OC(=O)N2CCN(C)CC2)/C=C/[C@@H]1C`, the GI50 is over 1000 nM in assay [1], 4.51 nM in assay [2] and 6.67 nM in assay [3]. For the same compound, the Emax in assay [3] was -90.4%. Further, on SF3b complexes, the IC50 was 2.15 nM.
For `C/C(=C\C=C\[C@@H](C)COC(=O)N1CC[C@@H](O)C1)[C@H]1OC(=O)CCCCC[C@@H](OC(=O)N2CCN(C)CC2)/C=C/[C@@H]1C`, in that order: 2840 nM, 8.59 nM, 6.48 nM, -87% and 5.42 nM.
For `CC(=O)O[C@H]1/C=C/[C@H](C)[C@@H](/C(C)=C/C=C/[C@H](C)c2ccccn2)OC(=O)C[C@H](O)CC[C@@]1(C)O`, the results for the GI50 in assay [1], in assay [2] and in assay [3] were over 10000 nM, 205 nM and 546 nM, respectively. Moreover, the Emax in assay [3] is 1.96%. On SF3b complexes, the IC50 was found to be 235 nM.
The matching figures for `C/C(=C\C=C\[C@H](C)c1cccnc1)[C@H]1OC(=O)C[C@H](O)CC[C@@](C)(O)[C@@H](OC(=O)N2CCN(C3CCCCCC3)CC2)/C=C/[C@@H]1C`: over 1000 nM, 29.4 nM, 20.4 nM, -94.2% and 2.56 nM.
For `C/C(=C\C=C\[C@@H](C)c1ccccn1)[C@H]1OC(=O)C[C@H](O)CC[C@@](C)(O)[C@@H](OC(=O)N2CC3(C2)CN(C2CCCCCC2)C3)/C=C/[C@@H]1C`, in that order: over 1000 nM, 130 nM, 115 nM, -41.9% and 71.3 nM.
Turning to `C/C(=C\C=C\[C@@H](C)COC(=O)N1CC[C@@H](N(C)C)C1)[C@H]1OC(=O)C[C@H](O)CC[C@@](C)(O)[C@@H](OC(=O)N2CCN(C3CCCCCC3)CC2)/C=C/[C@@H]1C`, the GI50 in assay [1] amounted to 3990 nM; in assay [2] it was 30.2 nM; in assay [3], 33 nM. In assay [3], the Emax was -85.4%. Also, the IC50 on SF3b complexes came out at 9.7 nM.
The matching figures for `CC(=O)O[C@H]1/C=C/[C@H](C)[C@@H](/C(C)=C/C=C/[C@@H](C)COC(=O)N2CCCCC2)OC(=O)C[C@H](O)CC[C@@]1(C)O`: over 10000 nM, 49.7 nM, 82.2 nM, -74.6% and 15 nM.
For `CC[C@H](O)[C@@H](C)NC(=O)OC[C@H](C)/C=C/C=C(\C)[C@H]1OC(=O)C[C@H](O)CC[C@@](C)(O)[C@@H](OC(C)=O)/C=C/[C@@H]1C`, the GI50 in assay [1] is over 10000 nM; in assay [2] it was 555 nM; in assay [3] it was 327 nM. The Emax in assay [3] was -92.8%. Moreover, the 50% inhibitory concentration (IC50) on SF3b complexes was determined as 53.4 nM.
